In ChEMBL document CHEMBL4680224, “Discovery of pyridine tetrahydroisoquinoline thiohydantoin derivatives with low blood-brain barrier penetration as the androgen receptor antagonists” (Eur J Med Chem, 2020):
Activity calls are given as the source filed them. No cut-off for these calls is given here.

Assays:
LNCaP [1] = assay: Antiproliferative activity against human LNCaP cells assessed as reduction in cel viability after 72 hrs by MTT assay; type: functional, cell-based
[2] = Toxicity in BALB/c mouse xenografted with human LNCaP cells assessed as pathological changes in heart at 15 to 45 mg/kg, po administered daily for 21 days H and E staining based optical microscopic method; type: organism-based; details: in vivo, 504 h, dose 15-45 mg/kg, time 21 day
[3] = Toxicity in BALB/c mouse xenografted with LNCaP cells assessed as reduction in body weight at 15 to 45 mg/kg, po administered daily for 21 days; type: organism-based; details: in vivo, 504 h, dose 15-45 mg/kg, time 21 day
[4] = Toxicity in BALB/c mouse xenografted with human LNCaP cells assessed as pathological changes in spleen at 15 to 45 mg/kg, po administered daily for 21 days H and E staining based optical microscopic method; type: organism-based; details: in vivo, 504 h, dose 15-45 mg/kg, time 21 day
[5] = Toxicity in BALB/c mouse xenografted with human LNCaP cells assessed as pathological changes in kidney at 15 to 45 mg/kg, po administered daily for 21 days H and E staining based optical microscopic method; type: organism-based; details: in vivo, 504 h, dose 15-45 mg/kg, time 21 day
LNCaP [6] = assay: Antitumour activity against human LNCaP cells xenografted in BALB/c nude mouse assessed as decrease in PSA level at 15 mg/kg, po administered daily for 21 days by ELISA relative to control; type: functional; design: scale not given: the % may be the effect or the level left; details: time 21 day
DU-145 = assay: Antiproliferative activity against human DU-145 cells assessed as reduction in cel viability after 72 hrs by MTT assay; type: functional, cell-based; details: DU-145, 72 h
LNCaP [7] = assay: Antitumour activity against human LNCaP cells xenografted in BALB/c nude mouse assessed as decrease in PSA level at 45 mg/kg, po administered daily for 21 days by ELISA relative to control; type: functional; design: scale not given: the % may be the effect or the level left; details: time 21 day
LNCaP [8] = assay: Antitumour activity against human LNCaP cells xenografted in BALB/c nude mouse assessed as reduction in tumour weight at 15 mg/kg, po administered daily for 21 days relative to control; type: functional; details: 504 h, time 21 day, read-out: TGI
Androgen receptor = target: T1, Androgen receptor (Homo sapiens, UniProt P10275); assay: Antagonist activity at Androgen receptor (unknown origin) expressed in COS7 cells by dual luciferase reporter gene assay relative to control; type: cell-based
T1 sequence (P10275 whole entry): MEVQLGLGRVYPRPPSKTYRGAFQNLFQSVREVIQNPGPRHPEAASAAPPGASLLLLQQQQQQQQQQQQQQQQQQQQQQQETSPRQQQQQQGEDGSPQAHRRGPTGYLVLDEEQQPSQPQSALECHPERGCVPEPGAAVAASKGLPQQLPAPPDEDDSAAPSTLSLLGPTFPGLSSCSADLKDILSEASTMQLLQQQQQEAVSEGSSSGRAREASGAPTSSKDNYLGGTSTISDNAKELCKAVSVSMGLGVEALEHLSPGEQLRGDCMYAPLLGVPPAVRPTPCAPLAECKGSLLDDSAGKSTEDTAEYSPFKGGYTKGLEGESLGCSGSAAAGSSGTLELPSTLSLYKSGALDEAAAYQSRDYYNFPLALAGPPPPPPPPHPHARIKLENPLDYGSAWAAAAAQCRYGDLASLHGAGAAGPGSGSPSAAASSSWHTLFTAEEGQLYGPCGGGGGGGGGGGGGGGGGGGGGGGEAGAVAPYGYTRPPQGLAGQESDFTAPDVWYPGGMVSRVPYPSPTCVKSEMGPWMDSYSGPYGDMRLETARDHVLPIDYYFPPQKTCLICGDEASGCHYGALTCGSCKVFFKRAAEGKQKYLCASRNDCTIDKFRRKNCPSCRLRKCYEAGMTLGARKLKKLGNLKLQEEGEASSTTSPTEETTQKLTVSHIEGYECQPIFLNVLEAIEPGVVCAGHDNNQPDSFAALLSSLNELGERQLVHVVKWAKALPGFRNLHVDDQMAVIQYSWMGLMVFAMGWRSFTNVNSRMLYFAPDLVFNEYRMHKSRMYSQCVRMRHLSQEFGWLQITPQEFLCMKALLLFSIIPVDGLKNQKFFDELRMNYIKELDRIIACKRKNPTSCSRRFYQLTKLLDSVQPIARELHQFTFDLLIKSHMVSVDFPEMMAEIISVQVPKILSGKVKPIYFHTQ

[9] = Toxicity in BALB/c mouse xenografted with human LNCaP cells assessed as pathological changes in liver at 15 to 45 mg/kg, po administered daily for 21 days H and E staining based optical microscopic method; type: organism-based; details: in vivo, 504 h, dose 15-45 mg/kg, time 21 day
[10] = Toxicity in ICR mouse assessed as pathological changes in seminal vesicle at 100 to 1000 mg/kg, po administered for 14 days by H and E staining based optical microscopic method; type: organism-based; details: in vivo, 336 h, dose 100-1000 mg/kg, time 14 day
[11] = Toxicity in BALB/c mouse xenografted with human LNCaP cells assessed as pathological changes in lung at 15 to 45 mg/kg, po administered daily for 21 days H and E staining based optical microscopic method; type: organism-based; details: in vivo, 504 h, dose 15-45 mg/kg, time 21 day
LNCaP [12] = assay: Antitumour activity against human LNCaP cells xenografted in BALB/c nude mouse assessed as reduction in tumour weight at 30 mg/kg, po administered daily for 21 days relative to control; type: functional; details: 504 h, time 21 day, read-out: TGI
LNCaP [13] = assay: Antitumour activity against human LNCaP cells xenografted in BALB/c nude mouse assessed as decrease in PSA level at 30 mg/kg, po administered daily for 21 days by ELISA relative to control; type: functional; design: scale not given: the % may be the effect or the level left; details: time 21 day
LNCaP [14] = assay: Antitumour activity against human LNCaP cells xenografted in po dosed BALB/c nude mouse assessed as reduction in tumour volume administered daily for 21 days; type: functional, organism-based; details: dose 15-45 mg/kg, time 21.0 day
LNCaP [15] = assay: Antitumour activity against human LNCaP cells xenografted in po dosed BALB/c nude mouse assessed as decrease in PSA level administered daily for 21 days by ELISA; type: functional, organism-based; details: dose 15-45 mg/kg, time 21.0 day
LNCaP [16] = assay: Antitumour activity against human LNCaP cells xenografted in BALB/c nude mouse assessed as reduction in tumour weight at 45 mg/kg, po administered daily for 21 days relative to control; type: functional; details: Mus musculus, LNCaP, po, 504 h, time 21 day, read-out: TGI
LNCaP [17] = assay: Antitumour activity against human LNCaP cells xenografted in BALB/c nude mouse assessed as increase in necrosis at 15 to 45 mg/kg, po administered daily for 21 days by H and E staining based optical microscopic method; type: functional, organism-based; details: dose 15-45 mg/kg, time 21.0 day
[18] = Half life in human liver microsomes at 10 uM; type: ADME, Microsome
[19] = Toxicity in ICR mouse assessed as reduction in body weight at 100 to 1000 mg/kg, po administered for 14 days; type: organism-based; details: in vivo, 336 h, dose 100-1000 mg/kg, time 14 day
LNCaP [20] = assay: Antitumour activity against human LNCaP cells xenografted in po dosed BALB/c nude mouse assessed as reduction in tumour weight administered daily for 21 days; type: functional, organism-based; details: dose 15-45 mg/kg, time 21.0 day
[21] = Toxicity in ICR mouse assessed as pathological changes in prostate […] at 100 to 1000 mg/kg, po administered for 14 days by H and E staining based optical microscopic method; type: organism-based; details: in vivo, 336 h, dose 100-1000 mg/kg, time 14 day
[22] = Stability in human liver microsomes assessed as parent compound remaining at 10 uM; type: ADME, Microsome; details: read-out: Stabilty
LNCaP [23] = assay: Antitumour activity against human LNCaP cells xenografted in po dosed BALB/c nude mouse assessed as reduction in tumour size administered daily for 21 days; type: functional, organism-based; details: dose 15-45 mg/kg, time 21.0 day
in vitro = details: human, liver microsomes
Description: Intrinsic clearance in human liver microsomes at 10 uM

LNCaP [24] = assay: Antitumour activity against human LNCaP cells xenografted in BALB/c nude mouse assessed as increase in karyorrhexis at 15 to 45 mg/kg, po administered daily for 21 days by H and E staining based optical microscopic method; type: functional, organism-based; details: dose 15-45 mg/kg, time 21.0 day

IC50 (LNCaP [1]): 14.8 µM
IC50 (DU-145): 94.3 µM
IC50 (Androgen receptor): 6.17 µM
half-life at 10 µM [18]: 4.36 h
remaining at 10 µM [22]: 87.1%
CLint scaled at 10 µM (in vitro): 7.86 mL/min/kg
Structure (SMILES): CCOC(=O)Nc1cc2c(cc1F)CC1C(=O)N(c3cnc(C#N)c(C(F)(F)F)c3)C(=S)N1C2 (configuration not stated)
Activity [2]: Non-Toxic
Activity [3]: Non-Toxic
Activity [4]: Non-Toxic
Activity [5]: Non-Toxic
Activity (LNCaP [6]): 24%
Activity (LNCaP [7]): 73%
inhibition in vivo at 15 mg/kg (LNCaP [8]): 12%
Activity [9]: Non-Toxic
Activity [10]: Non-Toxic
Activity [11]: Non-Toxic
inhibition in vivo at 30 mg/kg (LNCaP [12]): 39%
Activity (LNCaP [13]): 43%
Activity (LNCaP [14]): Dose-dependent effect
Activity (LNCaP [15]): Dose-dependent effect
inhibition in vivo at 45 mg/kg (LNCaP [16]): 79%
Activity (LNCaP [17]): Active
Activity [19]: Non-Toxic
Activity (LNCaP [20]): Dose-dependent effect
Activity [21]: Non-Toxic
Activity (LNCaP [23]): Dose-dependent effect
Activity (LNCaP [24]): Active
